Reference: PMC4659573 (PLoS ONE, 2015)

Tests used:
[1] = test system: primary CLL cells; test: CLL cell apoptosis, Annexin V staining within the CD19+ subset, flow cytometry; type: cell-based, human; settings: for CLL cell apoptosis with selective CDK inhibitors: alone or in combination, data not shown
Source text: Following approval by the Committee for Protection of Human Subjects at Dartmouth-Hitchcock Medical Center, the Institutional Review Board at Oregon Health and Science University and written consent of patients, peripheral blood was obtained from patients with B-CLL at the hematology clinics at the above institutions (N = 52). The mean time from CLL diagnosis to entry of study was 5 years; 39 patients (75%) were previously untreated. Isolation of peripheral blood mononuclear cells (PMBCs) was performed using standard Ficoll-Hypaque technique (Amersham, Piscataway, NJ). CLL samples had more than 90% CD5^+/CD19^+ cells, as determined by flow cytometry. CLL cells were cultured in RMPI-1640 medium supplemented with 15% fetal bovine serum, 100 U/mL penicillin, 100 μg/mL streptomycin, 2 mM L-glutamine, 25 mM HEPES, 100 μM non-essential amino acids and 1 mM sodium pyruvate (Lonza, Walkersville, MD). 10 CLL samples with 17p deletion were obtained from the CLL Center at Dana-Farber Cancer Institute. All experiments were performed with freshly isolated cells except the viability assays involving the latter, which were performed with viably frozen cells.
CLL cell apoptosis was measured in duplicates as previously described using the ApoScreen Annexin V Apoptosis Kit. Briefly, cells were resuspended in 150 μl of Annexin V binding buffer containing 1 μl of Annexin V-PE, 1 μl of 7-aminoactinomycin D (7-AAD) and 1 μl of CD19-mAbs (Southern Biotech, Birmingham, AL) followed by flow cytometry on a MACSQuant flow cytometer (Miltenyi Biotec, San Diego, CA). Flow cytometry analysis was performed using FlowJo software (Tree Star, Ashland, OR). P1446A was provided by Piramal Healthcare Ltd. (Mumbai, India). JNK Inhibitor VIII, SP600125, SB203580, ABT-737 and PD0332991 were obtained from Selleck Chemicals (Houston, TX) and CVT-313—from Santa Cruz Biotechnology (Dallas, TX).
Here and subsequently, apoptosis was determined by Annexin V staining within the CD19^+ subset of cells. Horizontal lines represent the mean. […] IC50 value was determined for CLL samples with mutated (N = 13) and unmutated IGHV (N = 10). […] Cytogenetics markers were determined by fluorescent in situ hybridization [no marker, 11q, trisomy 12, 13q, 17p]. Horizontal lines represent the mean. […] Since we noted a significant variation in baseline apoptosis between patient samples, normalization to the time-matched untreated controls was performed to more clearly reflect the drug-induced apoptosis. *- p<0.05 compared to untreated control.

[2] = target: T1, Glycogen synthase 3ß (GSK3ß) (Homo sapiens, UniProt P49841); test: biochemical kinase profiling (S1 Fig)
T1 construct: purchased ProQinase, Freiburg, Germany
Protocol: (§1) Supplementary file pone.0143685.s001.pptx: S1 Fig Determination of selectivity of P1446A-05 was established using biochemical kinase profiling (Kinase 400-Profiler, ProQinase, Freiburg, Germany). IC50 values were determined for the 37 kinases whose activity was inhibited by ≥60% at a drug concentration of 10 μM or less (as shown). […] (PPTX) Click here for additional data file.

[3] = test system: PIM kinase isoforms; test: biochemical kinase profiling (S1 Fig)
Protocol: as §1

[4] = test system: HCT-116; parameters: method as in Piramal Healthcare Ltd., proprietary information; 24; settings: HCT-116 xenograft mouse model; ref Piramal Healthcare Ltd., proprietary information; 24; cited from earlier work
[5] = test system: H-460; parameters: method as in Piramal Healthcare Ltd., proprietary information; 24; settings: H-460 xenograft mouse model; ref Piramal Healthcare Ltd., proprietary information; 24; cited from earlier work
[6] = target: T2, CDK4 (Homo sapiens, UniProt P11802); test: biochemical kinase profiling (Kinase 400-Profiler, ProQinase); settings: S1 Fig
T2 construct: purchased ProQinase, Freiburg, Germany
Protocol: as §1

[7] = target: T3, CDK8 (Homo sapiens, UniProt P49336); test: as above; settings: S1 Fig
T3 construct: purchased ProQinase, Freiburg, Germany
Protocol: as §1

[8] = target: T4, CDK2 (Homo sapiens, UniProt P24941); test: as above; settings: S1 Fig
T4 construct: purchased ProQinase, Freiburg, Germany
Protocol: as §1

[9] = target: T5, CDK6 (Homo sapiens, UniProt Q00534); test: as above; settings: S1 Fig
T5 construct: purchased ProQinase, Freiburg, Germany
Protocol: as §1

[10] = target: T6, CDK5 (Homo sapiens, UniProt Q00535); test: as above; settings: S1 Fig
T6 construct: purchased ProQinase, Freiburg, Germany
Protocol: as §1

[11] = target: T7, CDK1 (Homo sapiens, UniProt P06493); test: as above; settings: S1 Fig
T7 construct: purchased ProQinase, Freiburg, Germany
Protocol: as §1

[12] = test system: kinases (Kinase 400-Profiler panel); test: kinase selectivity profiling (Kinase 400-Profiler, ProQinase); type: biochemical; settings: at a drug concentration of 10 μM or less
Protocol: as §1

[13] = test system: relapsed/refractory CLL; settings: cited from earlier work

T3 sequence (P49336 whole entry): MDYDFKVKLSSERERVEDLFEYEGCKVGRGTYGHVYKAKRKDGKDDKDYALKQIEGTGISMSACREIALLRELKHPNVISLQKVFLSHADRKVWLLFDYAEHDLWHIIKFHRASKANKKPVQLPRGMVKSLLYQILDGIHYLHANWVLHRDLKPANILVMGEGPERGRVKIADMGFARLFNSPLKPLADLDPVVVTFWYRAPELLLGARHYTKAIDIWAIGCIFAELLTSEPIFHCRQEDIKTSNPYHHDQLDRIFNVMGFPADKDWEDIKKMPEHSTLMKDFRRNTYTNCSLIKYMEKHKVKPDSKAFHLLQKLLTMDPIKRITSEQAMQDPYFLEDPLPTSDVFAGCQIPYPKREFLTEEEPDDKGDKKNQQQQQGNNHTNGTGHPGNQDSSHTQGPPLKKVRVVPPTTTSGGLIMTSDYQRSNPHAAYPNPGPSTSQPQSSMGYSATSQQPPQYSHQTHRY
T3 sequence (P24863 whole entry partner): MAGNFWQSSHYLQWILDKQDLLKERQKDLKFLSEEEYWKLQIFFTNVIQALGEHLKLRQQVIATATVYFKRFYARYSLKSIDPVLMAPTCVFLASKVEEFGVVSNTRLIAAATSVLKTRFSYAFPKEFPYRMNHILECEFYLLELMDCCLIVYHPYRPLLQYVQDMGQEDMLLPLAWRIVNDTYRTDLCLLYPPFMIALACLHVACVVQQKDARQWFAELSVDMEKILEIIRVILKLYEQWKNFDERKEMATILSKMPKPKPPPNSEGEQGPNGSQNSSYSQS
T2 sequence (P11802 whole entry): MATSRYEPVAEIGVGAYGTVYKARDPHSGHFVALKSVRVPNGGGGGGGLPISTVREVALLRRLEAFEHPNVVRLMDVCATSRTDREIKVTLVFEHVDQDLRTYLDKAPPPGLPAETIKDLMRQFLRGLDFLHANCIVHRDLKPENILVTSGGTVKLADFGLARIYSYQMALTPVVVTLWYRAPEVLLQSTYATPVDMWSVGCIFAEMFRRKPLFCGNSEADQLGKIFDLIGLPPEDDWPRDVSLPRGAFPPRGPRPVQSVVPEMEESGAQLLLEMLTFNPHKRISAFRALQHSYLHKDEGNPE
T2 sequence (P24385 whole entry partner): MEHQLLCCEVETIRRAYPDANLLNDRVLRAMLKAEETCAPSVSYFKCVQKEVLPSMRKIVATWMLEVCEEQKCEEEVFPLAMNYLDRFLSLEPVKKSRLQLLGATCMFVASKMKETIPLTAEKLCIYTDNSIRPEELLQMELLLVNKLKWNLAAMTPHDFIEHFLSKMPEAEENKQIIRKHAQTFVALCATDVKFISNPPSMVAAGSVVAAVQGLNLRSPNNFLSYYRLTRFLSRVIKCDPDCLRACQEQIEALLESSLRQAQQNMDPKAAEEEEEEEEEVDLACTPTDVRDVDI
T5 sequence (Q00534 whole entry): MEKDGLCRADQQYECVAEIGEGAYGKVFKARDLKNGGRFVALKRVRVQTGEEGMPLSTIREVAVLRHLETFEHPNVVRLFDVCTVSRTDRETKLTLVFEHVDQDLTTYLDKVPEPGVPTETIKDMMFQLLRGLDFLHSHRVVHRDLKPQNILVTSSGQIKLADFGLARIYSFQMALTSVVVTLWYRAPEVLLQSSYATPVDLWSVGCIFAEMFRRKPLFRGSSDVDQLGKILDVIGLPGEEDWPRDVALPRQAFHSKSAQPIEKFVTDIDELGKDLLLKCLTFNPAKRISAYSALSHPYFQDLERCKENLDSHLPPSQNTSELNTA
T5 sequence (P24385 whole entry partner): as the sequence (P24385 whole entry partner) above
T7 sequence (P06493 whole entry): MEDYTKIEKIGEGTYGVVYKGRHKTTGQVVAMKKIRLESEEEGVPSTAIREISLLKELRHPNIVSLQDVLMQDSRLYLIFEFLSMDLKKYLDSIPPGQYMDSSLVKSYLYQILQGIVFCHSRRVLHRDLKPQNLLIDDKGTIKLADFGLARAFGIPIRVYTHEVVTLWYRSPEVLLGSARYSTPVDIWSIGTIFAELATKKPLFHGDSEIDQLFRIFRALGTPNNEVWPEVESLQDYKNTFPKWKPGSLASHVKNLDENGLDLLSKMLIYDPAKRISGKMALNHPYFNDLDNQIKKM
T7 sequence (P14635 whole entry partner): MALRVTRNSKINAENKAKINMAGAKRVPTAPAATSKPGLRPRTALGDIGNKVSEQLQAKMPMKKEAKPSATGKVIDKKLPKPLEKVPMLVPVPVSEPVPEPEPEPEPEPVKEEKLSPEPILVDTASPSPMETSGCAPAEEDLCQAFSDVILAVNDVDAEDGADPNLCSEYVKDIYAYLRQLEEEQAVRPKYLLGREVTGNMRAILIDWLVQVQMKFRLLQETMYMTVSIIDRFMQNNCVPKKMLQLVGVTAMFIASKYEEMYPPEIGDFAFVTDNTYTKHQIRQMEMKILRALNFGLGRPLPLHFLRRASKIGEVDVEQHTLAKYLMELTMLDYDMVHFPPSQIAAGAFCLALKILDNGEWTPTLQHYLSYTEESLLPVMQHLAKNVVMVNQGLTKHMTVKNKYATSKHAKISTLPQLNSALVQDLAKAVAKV
T1 sequence (P49841 whole entry): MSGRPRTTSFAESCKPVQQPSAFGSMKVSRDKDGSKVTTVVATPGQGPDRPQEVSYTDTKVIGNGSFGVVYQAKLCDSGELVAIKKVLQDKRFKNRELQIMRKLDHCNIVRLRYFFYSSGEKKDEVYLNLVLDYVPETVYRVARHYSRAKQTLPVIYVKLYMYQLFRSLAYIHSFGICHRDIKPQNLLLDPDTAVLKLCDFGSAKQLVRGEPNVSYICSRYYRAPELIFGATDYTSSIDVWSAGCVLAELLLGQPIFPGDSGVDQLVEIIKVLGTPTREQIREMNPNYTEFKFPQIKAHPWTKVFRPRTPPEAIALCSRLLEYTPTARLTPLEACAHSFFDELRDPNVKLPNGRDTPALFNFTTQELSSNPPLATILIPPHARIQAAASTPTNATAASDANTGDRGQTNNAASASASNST
T6 sequence (Q00535 whole entry): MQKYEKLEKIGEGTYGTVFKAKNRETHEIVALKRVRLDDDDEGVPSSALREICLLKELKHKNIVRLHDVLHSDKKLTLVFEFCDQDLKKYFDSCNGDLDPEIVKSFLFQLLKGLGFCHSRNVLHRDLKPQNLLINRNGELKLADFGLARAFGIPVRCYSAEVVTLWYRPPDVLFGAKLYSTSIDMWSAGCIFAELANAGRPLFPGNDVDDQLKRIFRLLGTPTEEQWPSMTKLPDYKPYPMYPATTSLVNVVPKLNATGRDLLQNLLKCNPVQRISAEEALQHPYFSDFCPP
T6 sequence (Q15078 99-307 partner limits assumed): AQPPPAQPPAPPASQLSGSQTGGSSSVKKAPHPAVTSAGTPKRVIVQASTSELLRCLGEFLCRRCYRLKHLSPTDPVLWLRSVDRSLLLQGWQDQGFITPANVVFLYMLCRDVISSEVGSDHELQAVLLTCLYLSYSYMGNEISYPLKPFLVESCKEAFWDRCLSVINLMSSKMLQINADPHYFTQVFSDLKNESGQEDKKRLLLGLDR

CC(=O)c1c(C)c2cnc(Nc3ccc(N4CCNCC4)cn3)nc2n(C2CCCC2)c1=O [PD0332991, reference compound]
CLL cell apoptosis with selective CDK inhibitors [1]: did not lead to CLL cell apoptosis

CN1CC[C@@H](c2c(O)cc(O)c3c(=O)cc(-c4ccc(C(F)(F)F)cc4Cl)oc23)[C@@H]1CO [P1446A]
cells that underwent apoptosis ([1]; 0.5 μM, 24 hour incubation, N = 10, vehicle control 29.2±2.0%): 47.2±3.5% | apoptosis of CLL cells ([1]; 1.5 μM, 24 hour incubation, N = 10): 83.3±3.3% | concentration range of inhibition in vitro [2]: nanomolar concentration range | concentration range of inhibition in vitro [3]: nanomolar concentration range | tumor growth in xenograft [4]: restricted growth | tumor growth in xenograft [5]: restricted growth | IC50 [6]: 90 nM | IC50 [7]: 12 nM | IC50 [8]: 180 nM | IC50 [9]: 210 nM | IC50 [10]: 210 nM | IC50 [11]: 25 nM | number of kinases whose activity was inhibited by ≥60% [12]: 37

CN1CC[C@H](c2c(O)cc(O)c3c(=O)cc(-c4ccccc4Cl)oc23)[C@H](O)C1 [flavopiridol]
patients with responses [13]: 53%

COc1ccc(CNc2nc(N(CCO)CCO)nc3c2ncn3C(C)C)cc1 [CVT-313, reference compound]
CLL cell apoptosis with selective CDK inhibitors [1]: did not lead to CLL cell apoptosis

CCc1cnn2c(NCc3ccc[n+]([O-])c3)cc(N3CCCC[C@H]3CCO)nc12 [Dinaciclib]
overall response rate ([13]; patients with relapsed/refractory CLL): 54%
